The values that follow come from patent publication US20060142374A1, “Crystal for oral solid drug and oral solid drug for dysuria treatment containing the same” (KISSEI PHARMACEUTICAL CO., LTD., priority 2002, published 2006).

What all share (format): physicochemical
Data set [1] is described as follows: Stability to light on preservation. To be noted: content of active ingredient decreases depending on preserved condition with time.
A short description of data set [2]: Stability test (appearance by naked eye, purity by liquid chromatography after storage). The note with it: for Stability in respect of purity and appearance: summary of storage conditions 1-4. How it is done: Appearance and purity of each crystal obtained in Examples 1-3 and an amorphous obtained by freeze-drying a solution of KMD-3213 in dioxane were determined after allowing to stand under following conditions. As for appearance, it was determined by color and properties with the naked eye. Purity was determined by integral percentage method with liquid chromatography.
Condition 1: Allowing to stand at 40° C. in the constant temperature device for 28 days
Condition 2: Allowing to stand at 60° C. in the constant temperature device for 28 days
Condition 3: Allowing to stand at 80° C. in the constant temperature device for 25 days
Condition 4: Allowing to stand at 40° C. and relative humidity 75% in the constant temperature device for 28 days
The Liquid Chromatography Condition:
Detector: ultraviolet absorption spectrophotometer (wave length: 225 nm)
Column: Intertsil ODS-3 (GL Science, 5 μm, 4.6 mm×25 cm)
Column temperature: about 25° C.
Mobile Phase: To 3.9 g of sodium dihydrogen phosphate was added 2.5 mL of diluted phosphoric acid solution (1→20) accurately, and water was added to make 1000 mL of a solution accurately. A 5:2 mixed solution of the resulting solution and acetonitrile.

Data set [3] in a line: Moisture absorption test (weight change after storage). The note with it: for Moisture absorption (hygroscopicity): summary, compared with the amorphous. The procedure:
In the same manner as that of Test Example 1, the crystals obtained in Examples 1-3 and the amorphous were used for the test. Approximately 1 g of test substance was weighed accurately and put it into a sample vial. After the test substance was allowed to stand in an opening constant temperature and humidity device under following condition, their differences of weights were measured.
Condition 1: Allowing to stand at 25° C. and 60% of relative humidity in the constant temperature and humidity device for 3 days
Condition 2: Allowing to stand at 40° C. and 75% of relative humidity in the constant temperature and humidity device for 3 days

Setting [4] is: Condition 1: 40° C. for 28 days.
Where [5] appears, read: Condition 2: 60° C. for 28 days.
Where [6] appears, read: Condition 3: 80° C. for 25 days.
The mark [7] stands for this setting: Condition 4: 40° C. and relative humidity 75% for 28 days.
Setting [8] is: Initial, liquid chromatography, integral percentage method.
The mark [9] stands for this setting: Condition 1: 25° C. and 60% relative humidity for 3 days.
The mark [10] stands for this setting: Condition 2: 40° C. and 75% relative humidity for 3 days.

Each structure is given as a SMILES string.

Consider `C[C@H](Cc1cc2c(c(C(N)=O)c1)N(CCCO)CC2)NCCOc1ccccc1OCC(F)(F)F` [KMD-3213], for which, in data set [1], the Stability for light result is recorded as “unstable for light relatively”.
Regarding `C[C@H](Cc1cc2c(c(C(N)=O)c1)N(CCCO)CC2)NCCOc1ccccc1OCC(F)(F)F` [amorphous, KMD-3213], the Appearance result in data set [2] (setting [4]) was “White powder”; in data set [2] (setting [5]), “Pale yellow”; in data set [2] (setting [6]), “Pale yellowish”; in data set [2] (setting [7]) it was “White powder”; in data set [2] (Initial), “White powder”. Further, the “Purity (%)” value came to 99.66% in data set [2] (setting [4]); 99.56% in data set [2] (setting [5]); 99.53% in data set [2] (setting [6]); 99.71% in data set [2] (setting [7]); 99.79% in data set [2] (setting [8]). Besides, the results for the “Change(%) of weight” value in data set [3] (setting [9]) and in data set [3] (setting [10]) were “+1.61%” and “+1.31%”, respectively.
Consider `C[C@H](Cc1cc2c(c(C(N)=O)c1)N(CCCO)CC2)NCCOc1ccccc1OCC(F)(F)F` [α, KMD-3213], for which the Appearance entry in data set [2] (setting [4]) is given as “White powder”; in data set [2] (setting [5]), “White powder”; in data set [2] (setting [6]), “Pale yellow”; in data set [2] (setting [7]), “White powder”; in data set [2] (Initial), “White powder”. Also, the “Purity (%)” value in data set [2] (setting [4]) is recorded as 99.84%; in data set [2] (setting [5]), 99.84%; in data set [2] (setting [6]), 99.58%; in data set [2] (setting [7]), 99.85%; in data set [2] (setting [8]), 99.90%. For the same compound, the “Stability in respect of purity and appearance” value is recorded as “extremely stable” in data set [2] (listed as crystal form a) and “the most stable” in data set [2] (listed as crystal form α). Besides, the “Change(%) of weight” value in data set [3] (setting [9]) was −0.01%; in data set [3] (setting [10]) it was −0.20%. The “Moisture absorption (hygroscopicity)” value in data set [3] was “absorbing moisture scarcely”.
Consider `C[C@H](Cc1cc2c(c(C(N)=O)c1)N(CCCO)CC2)NCCOc1ccccc1OCC(F)(F)F` [β, KMD-3213], for which the Appearance result in data set [2] (setting [4]) was “Pale yellow powder”; in data set [2] (setting [5]) it was “Pale yellowish”; in data set [2] (setting [6]), “Pale brown powder”; in data set [2] (setting [7]), “Pale yellow powder”; in data set [2] (Initial), “Pale yellow powder”. The “Purity (%)” value in data set [2] (setting [4]) was 99.73%; in data set [2] (setting [5]) it was 99.57%; in data set [2] (setting [6]), 98.42%; in data set [2] (setting [7]) it was 99.69%; in data set [2] (setting [8]), 99.83%. The figures for the “Change(%) of weight” value in data set [3] (setting [9]) and in data set [3] (setting [10]) were “+0.07%” and −0.08%, respectively. Also, in data set [3], the “Moisture absorption (hygroscopicity)” value is on record as “absorbing moisture scarcely”.
`C[C@H](Cc1cc2c(c(C(N)=O)c1)N(CCCO)CC2)NCCOc1ccccc1OCC(F)(F)F` [γ, KMD-3213]: the Appearance result in data set [2] (setting [4]), in data set [2] (setting [5]), in data set [2] (setting [6]), in data set [2] (setting [7]) and in data set [2] (Initial) was “Pale yellow powder” in each case. Besides, the “Purity (%)” value in data set [2] (setting [4]) was found to be 99.85%; in data set [2] (setting [5]), 99.84%; in data set [2] (setting [6]), 99.64%; in data set [2] (setting [7]), 99.85%; in data set [2] (setting [8]), 99.88%. The “Change(%) of weight” value in data set [3] (setting [9]) was 0.00%; in data set [3] (setting [10]), −0.19%. For the same compound, the “Moisture absorption (hygroscopicity)” value in data set [3] is recorded as “absorbing moisture scarcely”.
